Here are results for 16 substances from patent US10869931B2, “Polyethylene glycol-modified angiogenesis inhibitor HM-1 and application thereof” (NANJING ANJI BIOLOGICAL TECHNOLOGY CO.,LTD, priority 2016, dated 2020).

The subject of test [1] is various tumor cells. Put plainly: MTT proliferation inhibition, overall statements on various tumor cells. It is filed as cell-based, human. As to conditions: compared with the negative control. The protocol: (§1) The activity of mPEG-HM-1 to inhibit the growth of various tumor cells was examined by MTT assay. The tumor cells were cultured to a concentration of 90% or more in a 37° C., 5% CO2 incubator and collected by trypsinization. The cells were resuspended in the culture medium and counted under a microscope to adjust the cell concentration to 2×10^4 cells/mL, the cell suspension was inoculated into a 96-well plate at 100 μL/well and incubated overnight at 37° C. in a 5% CO2 incubator. mPEG-HM-1 was diluted with the culture solution to each predetermined concentration. Docetaxel is diluted to the final concentration with the culture medium. After the cells were fully attached, each dilution was added to a 96-well plate (100 μL/well). The mPEG-HM-1 dilution was added as a drug-administered group, and docetaxel was added as a positive control group, and a culture solution without any drug was used as a negative control group. Incubate for 48 h at 37° C. in a 5% CO2 incubator. 5 mg/mL of MTT was added to a 96-well plate at 20 μL per well, and incubation was continued for 4 hours. The medium was aspirated, dissolved in 150 μL of DMSO per well, and gently mixed by shaking for 10 min. The absorbance was measured at a measurement wavelength of 570 nm and a reference wavelength of 630 nm using a microplate reader, and the rate of growth inhibition (proliferation inhibition, PI) was calculated. The formula is as follows: PI (%)=1−administration group/negative group
(§2) The test was repeated 3 times independently, and the results obtained by the test were expressed as mean±SD, and the test results are shown in Table 15 to Table 18.

The test system of test [2] is Bladder Cancer tumor cells. Put plainly: MTT proliferation inhibition, bladder cancer cells. Particulars: 48 h. The arrangement: concentration or dose not given beside the values. It counts as cell-based, human. The protocol:
as §1, §2

Test [3] relates to corneal neovascularization in BALB/c mice. Nature of the test: Alkali-burn corneal neovascularization in BALB/c mice (CD31 microvessel density). It is filed as in vivo, mouse. As to conditions: for Inhibition rate: corneal microvessel density vs control; for Inhibition rate / MVD: day 14 after alkali burn, intravitreal once a day for 1 week; for MVD: microvessel density (CD31) of cornea; for inhibition rate of corneal neovascularization: BALB/c mice, alkali burn, intravitreal injection once a day for 1 week. From the text:
(1) Preparation of corneal neovascularization model induced by alkali burn in BALB/c mice: mice were randomly grouped and labeled as mPEG-HM-1 experimental group and control group, 5 […] in each group, respectively, was given mPEG-HM-1 and saline by Intravitreal injection after alkali burn, once a day for 1 week. The inflammatory reaction and neovascularization of the cornea were observed under slit lamp microscope at 1 d, 7 d, and 14 d after alkali burn. On the 14th day after alkali burn, the corneal neovascularization was recorded under the slit lamp microscope in the anterior segment of the eye. All the mice were euthanized by cervical dislocation and the eyeballs were removed, washed with saline to rid of blood, and was fixed in 4% paraformaldehyde for 1.5 h, dehydrated in PBS containing 30% sucrose overnight, embedded in OCT frozen section embedding agent, stored in −80° C. refrigerator, frozen section 8 μm, and underwent immunocytochemical detection of CD31 expression. (2) Quantitative measurement of corneal tissue microvessel density: Microvessel density (MVD) is an indicator for evaluating angiogenesis. Vascular endothelial cells were labeled with anti-CD31 antibody by immunohistochemistry, and the number of microvessels per unit area was counted to measure the degree of neovascularization. Standards for counting microvessels: Microscopically, the endothelial cells or cell clusters that are clearly demarcated from adjacent tissues in the corneal tissue and stained brown or brown are counted in the neovascularization. The number of new blood vessels in the whole section was counted under a 10×20 microscope. After the corneal tissue was photographed, the entire corneal tissue area was calculated by image processing software Image J, and the neovascular density of the whole section was determined. The test was repeated 3 times independently. The results obtained by the test were expressed as mean±SD, and a statistical T test was performed. *P<0.05 was a significant difference, and **P<0.01 was a very significant difference.

Marks after values point to notes of the source that are not given here. Where no end group is shown, it is not given here.

With “mPEG-SC20k-Arg-Gly-Ala-Asp-Arg-Ala-Gly-Gly-Gly-Gly-Arg-Gly-Asp ({mPEG‑SC 20 kDa}-RGADRAGGGGRGD) [mPEG-SC20k-HM-1]”, the “inhibition of proliferation of various tumor cells (in words)” value (from here on “inhibition of proliferation … (in words)”) in test [1] was “had the best effect”. In addition, the “rate of growth inhibition” value in test [2] is recorded as 50.39 ± 11.73%. For the same substance, in test [3], the Inhibition rate is recorded as 46.53% and the MVD is recorded as 35.68 ± 4.842**.
Consider “mPEG-SC10k-Arg-Gly-Ala-Asp-Arg-Ala-Gly-Gly-Gly-Gly-Arg-Gly-Asp ({mPEG‑SC 10 kDa}-RGADRAGGGGRGD) [mPEG-SC10k-HM-1]”, for which the “rate of growth inhibition” value in test [2] is recorded as 42.76 ± 10.06%. Besides, in test [3], the “inhibition rate of corneal neovascularization” value was determined as 52.17%, the Inhibition rate worked out at 52.17% and the MVD is listed as 31.92 ± 3.648**.
For the substance “mPEG-SC5k-Arg-Gly-Ala-Asp-Arg-Ala-Gly-Gly-Gly-Gly-Arg-Gly-Asp ({mPEG‑SC 5 kDa}-RGADRAGGGGRGD) [mPEG-SC5k-HM-1]”, the “rate of growth inhibition” value in test [2] is 35.72 ± 11.52%. Moreover, in test [3], the Inhibition rate is on record as 40.52% and the MVD is 39.69 ± 3.527*.
For “mPEG-ALD40k-Arg-Gly-Ala-Asp-Arg-Ala-Gly-Gly-Gly-Gly-Arg-Gly-Asp ({mPEG‑ALD 40 kDa}-RGADRAGGGGRGD) [mPEG-ALD40k-HM-1]”, in test [2], the “rate of growth inhibition” value was 43.22 ± 10.31%. For the same substance, in test [3], the Inhibition rate amounted to 46.11% and the MVD was 35.96 ± 6.862**.
In the same order, the values of “mPEG-bALD20k-Arg-Gly-Ala-Asp-Arg-Ala-Gly-Gly-Gly-Gly-Arg-Gly-Asp ({mPEG‑bALD 20 kDa}-RGADRAGGGGRGD) [mPEG-bALD20k-HM-1]” are 45.24 ± 10.69%, 47.84% and 34.81 ± 6.817**.
For “mPEG2-NHS10k-Arg-Gly-Ala-Asp-Arg-Ala-Gly-Gly-Gly-Gly-Arg-Gly-Asp ({mPEG2‑NHS 10 kDa}-RGADRAGGGGRGD) [mPEG2-NHS10k-HM-1]”, in test [2], the “rate of growth inhibition” value was 43.78 ± 10.16%. Besides, in test [3], the “inhibition rate of corneal neovascularization” value is recorded as 50.07%, the Inhibition rate was 50.07% and the MVD is given as 33.32 ± 3.871**.
Turning to “mPEG2-NHS40k-Arg-Gly-Ala-Asp-Arg-Ala-Gly-Gly-Gly-Gly-Arg-Gly-Asp ({mPEG2‑NHS 40 kDa}-RGADRAGGGGRGD) [mPEG2-NHS40k-HM-1]”, the “rate of growth inhibition” value in test [2] stood at 45.60 ± 10.11%. In test [3], the Inhibition rate turned out to be 43.19% and the MVD is 37.91 ± 4.273**.
“mPEG-SC40k-Arg-Gly-Ala-Asp-Arg-Ala-Gly-Gly-Gly-Gly-Arg-Gly-Asp ({mPEG‑SC 40 kDa}-RGADRAGGGGRGD) [mPEG-SC40k-HM-1]”: the “rate of growth inhibition” value in test [2] worked out at 48.69 ± 11.61%. Further, in test [3], the Inhibition rate came to 43.48% and the MVD is 37.72 ± 4.153**.
“mPEG-ALD10k-Arg-Gly-Ala-Asp-Arg-Ala-Gly-Gly-Gly-Gly-Arg-Gly-Asp ({mPEG‑ALD 10 kDa}-RGADRAGGGGRGD) [mPEG-ALD10k-HM-1]”: in test [1], the “inhibition of proliferation … (in words)” value was “had the best effect”. Moreover, the “rate of growth inhibition” value in test [2] amounted to 52.68 ± 13.12%. Besides, in test [3], the “inhibition rate of corneal neovascularization” value was 53.83%, the Inhibition rate turned out to be 53.83% and the MVD is listed as 30.81 ± 5.465**.
Turning to “mPEG-bALD10k-Arg-Gly-Ala-Asp-Arg-Ala-Gly-Gly-Gly-Gly-Arg-Gly-Asp ({mPEG‑bALD 10 kDa}-RGADRAGGGGRGD) [mPEG-bALD10k-HM-1]”, in test [1], the “inhibition of proliferation … (in words)” value is reported as “had the best effect”. Also, the “rate of growth inhibition” value in test [2] amounted to 49.61 ± 12.12%. In addition, in test [3], the “inhibition rate of corneal neovascularization” value is on record as 52.03%, the Inhibition rate was 52.03% and the MVD is listed as 32.01 ± 5.738**.
In the case of “mPEG-ALD20k-Arg-Gly-Ala-Asp-Arg-Ala-Gly-Gly-Gly-Gly-Arg-Gly-Asp ({mPEG‑ALD 20 kDa}-RGADRAGGGGRGD) [mPEG-ALD20k-HM-1]”, in test [2], the “rate of growth inhibition” value came to 45.29 ± 11.63%. In test [3], the Inhibition rate is 48.04% and the MVD is on record as 34.67 ± 6.953**.
For “mPEG-bALD40k-Arg-Gly-Ala-Asp-Arg-Ala-Gly-Gly-Gly-Gly-Arg-Gly-Asp ({mPEG‑bALD 40 kDa}-RGADRAGGGGRGD) [mPEG-bALD40k-HM-1]”, in that order: 43.82 ± 10.31%, 45.27% and 36.52 ± 6.537**.
In the case of “mPEG-bALD5k-Arg-Gly-Ala-Asp-Arg-Ala-Gly-Gly-Gly-Gly-Arg-Gly-Asp ({mPEG‑bALD 5 kDa}-RGADRAGGGGRGD) [mPEG-bALD5k-HM-1]”, the “rate of growth inhibition” value in test [2] is 36.03 ± 10.12%. In test [3], the Inhibition rate came to 43.10% and the MVD is on record as 37.97 ± 3.914*.
In the same order, the values of “mPEG2-NHS5k-Arg-Gly-Ala-Asp-Arg-Ala-Gly-Gly-Gly-Gly-Arg-Gly-Asp ({mPEG2‑NHS 5 kDa}-RGADRAGGGGRGD) [mPEG2-NHS5k-HM-1]” are 38.64 ± 12.72%, 40.13% and 39.95 ± 3.985*.
In the same order, the values of “mPEG-ALD5k-Arg-Gly-Ala-Asp-Arg-Ala-Gly-Gly-Gly-Gly-Arg-Gly-Asp ({mPEG‑ALD 5 kDa}-RGADRAGGGGRGD) [mPEG-ALD5k-HM-1]” are 35.93 ± 10.29%, 45.09% and 36.64 ± 3.909*.
For the substance “mPEG2-NHS20k-Arg-Gly-Ala-Asp-Arg-Ala-Gly-Gly-Gly-Gly-Arg-Gly-Asp ({mPEG2‑NHS 20 kDa}-RGADRAGGGGRGD) [mPEG2-NHS20k-HM-1]”, in test [1], the “inhibition of proliferation … (in words)” value is “had the best effect”. The “rate of growth inhibition” value in test [2] worked out at 49.79 ± 12.73%. In addition, in test [3], the Inhibition rate was found to be 42.37% and the MVD is listed as 38.46 ± 4.528**.
